US5989555A, “Extracts of Larrea tridentata having antiviral activity and their use for treating viral infections” (priority 1996, dated 1999)
Where “and” joins values, the source holds several entries; their conditions need not be identical. Identical values can stand only once.

How the values were obtained:
HIV-LTR = assay: in vitro HIV gene transcription assay (Hela whole-cell extract, pLTR-1CAT template); format: biochemical, HIV-1; conditions: for CPM of run off transcription: 329 nt run off, DMSO control 625; for % Transcription (% T): DMSO control = 100
Protocol: This procedure was utilized to test lignans from the creosote bush including Rev.10:7 lignans (FB3 and FB5).
The inhibitory activity of the lignans prepared by the large scale isolation described in FIG. 6 is shown. The activity of the cyclolignans FB3 and FB5 is highlighted. Compounds FB1, FB2 and FB4 were each tested at 100, 120, 140 μg/ml. Rev.10:7 lignans (FB3 and FB5) were tested only at 100, 120 μg/ml.
The DNA used as template was the plasmid pLTR-1CAT, which contains HIV-LTR (-453 to +126) fused to the prokaryotic chloramphenicol acetyltransferase (CAT) gene. Unlabeled nucleoside triphosphates were from Pharmacia, and [α-^32 P]UTP (400 Ci/mmol) from Amersham.
DNA digests were then subjected to twice phenol-chloroform-isoamyl alcohol […] extractions and subsequently precipitated by ethanol. Hela whole-cell extracts (Manley extract) containing the polymerase and the transcription factors was prepared as previously described (Manley et al., Proc. Acad. Sci. USA 77:3855-3859 (1988)).
The transcription assay has been previously described (Bohan et al., Gene Expression 2:391-407 (1992)). Extracts prepared by the method of Manley, described above, (40 μg/reaction) and DNA template (0.4 μg/reaction)were preincubated with 0.4 μl of various concentrations of test compounds for 15 min at 30° C. The in vitro transcription buffer of Manley extract contained 10 mM HEPES (pH 7.9), 50 mM KCl, 0.5 mM EDTA, 1.5 mM […], 6.25 mM MgCl2, and 8.5% glycerol. Unlabeled nucleoside triphosphates and [α-^32 P]UTP (400 Ci/mmol) were mixed and added to the reaction mixture. The final volume of the reaction was brought to 15 μl followed by 1 hour incubation at 30° C. as illustrated in FIG. 9.
The transcription reaction was terminated by addition of 300 μl of stop solution (20 mM tris-HCl (pH 7.8), 150 mM NaCl, and 0.2% SDS), and extracted with equal volume of phenol. RNA in the aqueous phase was precipitated with 2.5 volumes of EtOH and 0.1 volume of 3 M sodium acetate. Following centrifugation, RNA pellets were washed with EtOH, dried and resuspended in 15 μl of denaturation mix containing 50% formamide:50% of 2×TBE, Xylene cyanol and bromophenol blue. The mixture was heated at 90° C. for 3 min, and electrophoresed at 400 V in 4% polyacrylamide (19:1 acrylamide:bisacrylamide) gel containing 7 M urea (prerun at 200 V for 30 min) and 1×TBE. The gel was exposed to Kodak XR-5 film at -70° C. with intensifying screens for autoradiography. Table 4 illustrates the same results in numerical form after radioactivity counts of the 329 nt run off transcription spots.

HIV-1 Tat protein = assay: cells; format: cell-based; conditions: Table 3, samples run in duplicate, each value mean of two determinations; for inhibition at 10 µg/mL / inhibition at 30 µg/mL: Human immunodeficiency virus 1, COS; for inhibition at 10 µg/mL: read-out: % Inhibition of Tat Transactivation, 10 μg/ml; for inhibition at 30 µg/mL: read-out: % Inhibition of Tat Transactivation, 30 μg/ml
Protocol: […] P. Loeffler and J. P. Behr, Meth. Enzymol. 217:599 (1993)). Cells were incubated for 12-15 hours after transfection before the extract was added at the various concentrations noted. The cultures were incubated for 48 hours, after which 250 μl of the culture supernatant was assayed for SEAP activity as described in Example 4.
The SEAP Assay. The "SEcreted Alkaline Phosphatase" assay for Tat transactivation has been described previously (Berger et al., Gene 66:1-10, 1988; Bohan et al., Gene Expression 2(4):391-407, 1992). The details of the entire procedure for the SEAP inhibition assay as used herein have been described (Gnabre et al. Journal of Chromatography A 719:353-364 (1996)).
The secreted alkaline phosphatase analysis was performed as originally described by Berger et al. In this assay, a DNA expression vector wherein a structural gene encoding a secreted alkaline phosphatase is driven by an enhancer-linked promoter is transfected into target cells. The cells are then exposed to compounds which affect the binding/activation of the transcription regulatory proteins, and the amount of SEAP activity in the medium is measured.
As to the alkaline phosphatase assay, briefly, a 250-μl aliquot was removed from COS cell culture supernatants, heated at 65° C. for 5 minutes to selectively inactivate endogenous phosphatase (SEAP is heat stable) and centrifuged in a microfuge for 2 minutes. […] of 2×SEAP assay buffer (1.0 M diethanolamine, pH 9.8; 0.5 mM MgCl2; 10 mM L-homoarginine) was added to 100-μl aliquot of the samples. The solution was mixed and transferred into a 96-well flat-bottom culture dish (Corning). Twenty μl of pre-warmed substrate solution (120 mM p-nitrophenylphosphate dissolved in 1×SEAP assay buffer) were dispensed with a multipipeter into each well containing the reaction mixture. The A405 of the reaction was read at 5-minute intervals at 37° C. for 60 minutes using an EL340i microplate reader (Bio-tek Instruments, Inc.) with 5-second automatic shakings before each reading. The change in absorbance was plotted against time in the standard assay of SEAP induction. In the drug screening assay, the percent inhibition of SEAP expression was calculated at its 30 min endpoint as follows:
% Inhibition=100-[(CT^+ -C^+)/(CT^- -C^-)]×100
The 3-Magi extract was monitored by SiO2 TLC with cerium sulfate charring, 2% CeSO4 (w/V) in 5.6% H2 SO4 (v/v), and by the SEAP assay for anti Tat-TRS activity. For the SEAP assay, test materials were dissolved in 10% DMSO solution made in calcium-free, magnesium-free PBS (Ca--Mg-free PBS). The suspension was centrifuged and the stock solution (10 mg/ml) was filter-sterilized using a Millex-GS […] filter (Millipore). Appropriate dilutions of the stock solution were prepared in a final DMSO concentration of 0.2% in Ca--Mg-free PBS to obtain the various concentrations of test compounds.
The 3-Magi extract prepared as in Examples 1 and 2 was assayed by the SEAP assay for anti Tat-TRS activity. […] Briefly, a day before DNA transfection, Linbro® 24 flat bottom wells of 17-mm diameter plates were pretreated with 0.5 ml sterile solution of 0.1% gelatin. The plates were kept in a tissue culture hood for 1 hour (all transfection steps were performed in the hood, unless otherwise stated). The gelatin solution was aspirated and the plates were washed with 0.5 ml of Iscove's Modified Delbecco's Medium (IMDM) supplemented with 10% fetal calf serum and antibiotics (complete medium). COS cells were seeded at a density of ≈1.5×10^5 cells per 17-mm plate and incubated in a humidified 95% air/5% CO2 incubator at 37° C. DNA transfection was performed at 50-60% cell confluency.

[1] = 140 μg/ml, estimated from Kodak film of gel after 3 day exposure

Row | Compound | % Inhibitor (100 - % T) (HIV-LTR; 100 μg/ml) [%] | CPM of run off transcription (HIV-LTR; 100 μg/ml) [CPM] | % Transcription (% T) (HIV-LTR; 100 μg/ml) [%] | % Inhibitor (100 - % T) (HIV-LTR; 120 μg/ml) [%] | CPM of run off transcription (HIV-LTR; 120 μg/ml) [CPM] | % Transcription (% T) (HIV-LTR; 120 μg/ml) [%] | % Inhibition of Tat Transactivation (HIV-1 Tat protein; 30 μg/ml) | % Inhibitor (100 - % T) (HIV-LTR; [1]) [%] | % Inhibition of Tat Transactivation (HIV-1 Tat protein; 10 μg/ml) [%] | inhibition at 10 µg/mL (HIV-1 Tat protein) [%] | inhibition at 30 µg/mL (HIV-1 Tat protein) [%]
1 | 3'-demethoxy-6-dehydroxy-8-O-demethoxylisoguaiacin [FB3] | 73 | 169 | 27 | 91 | 55 | 9 | 69% and 59% | – | – | – | –
2 | COc1ccc(C[C@@H](C)[C@@H](C)Cc2ccc(O)c(O)c2)cc1O [FB1, 4'-O-methyl-NDGA] | 0 | 917 | 147 | 0 | 804 | 129 | 99% | > 50 | 82 | 86 | 100
3 | COc1cc(CC(C)C(C)Cc2ccc(O)c(O)c2)ccc1O (stereo not drawn) [FB2, 3'-O-methyl-NDGA] | – | 972 | 155 | 0 | 661 | 106 | – | > 90 | 86 | 75 | 100
4 | C[C@H]1[C@H](c2ccc(O)cc2)c2cc(O)c(O)cc2C[C@H]1C [FB5, 3'-demethoxy-6-O-demethoxylisoguaiacin] | 40 | 373 | 60 | 58 | 264 | 42 | 87% | – | – | 63 | 84
